In US9540392B2, “Thienopyrimidines” (BAYER PHARMA AKTIENGESELLSCHAFT, priority 2012, dated 2017) one finds IC50 data, which are given here for 27 molecules.

pIC50: −log10 of the molar value.

In the first assay the target is T1, human full-length MKNK1 (Homo sapiens, UniProt Q9BUB5, T385D).
T1 construct: GST (N); purchased Carna Biosciences 02-145; host or cells: insect cells (baculovirus expression system)
T1 sequence (Q9BUB5 1-424 isoform Q9BUB5-2 T344D): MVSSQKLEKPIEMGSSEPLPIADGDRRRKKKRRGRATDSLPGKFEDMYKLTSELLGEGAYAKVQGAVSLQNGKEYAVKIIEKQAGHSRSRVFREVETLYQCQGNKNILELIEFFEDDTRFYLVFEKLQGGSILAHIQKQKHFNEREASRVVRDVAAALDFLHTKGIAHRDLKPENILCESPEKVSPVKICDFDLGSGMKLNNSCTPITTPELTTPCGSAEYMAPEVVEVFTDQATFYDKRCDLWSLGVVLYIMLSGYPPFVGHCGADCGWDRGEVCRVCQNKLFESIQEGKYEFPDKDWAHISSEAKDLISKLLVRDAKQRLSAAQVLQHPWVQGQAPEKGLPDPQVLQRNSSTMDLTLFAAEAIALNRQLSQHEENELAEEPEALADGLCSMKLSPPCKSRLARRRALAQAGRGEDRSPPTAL
Briefly: MKNK1 kinase high ATP assay (TR-FRET). Type of assay: biochemical.
Settings: not given
The gist of the method:
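Compound was preincubated 15 min at 22° C. with MKNK1 in 50 mM HEPES pH 7.5, 5 mM MgCl2, 1.0 mM DTT, then the reaction ran 30 min at 22° C. with 2 mM ATP and 0.06 μM biotinylated peptide (final).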
In general terms: Time-resolved FRET reads energy transfer from a long-lived donor to a nearby acceptor.
What is called pIC50 is the IC50 on a negative log10 scale, so that one unit is a factor of ten. Molecule `COc1cc2[nH]ncc2cc1Nc1ncnc2sc3c(c12)CCC(C(=O)N1CCC(=O)CC1)C3` (racemic) [Example 174, (RS)-1-({4-[(6-Methoxy-1H-indazol-5-yl)amino]-5,6,7,8-tetrahydro[1]benzothieno[2,3-d]pyrimidin-7-yl}carbonyl)piperidin-4-one] showed a pIC50 of 9.22.

Staying with this assay, now noted: 2 mM ATP, after preincubation with MKNK1; read-out: MKNK1 IC50 (MKNK1 high ATP).
As for `O=C(Nc1cncnc1)C1CCc2c(sc3ncnc(Nc4ccc5[nH]ncc5c4)c23)C1` (racemic) [Example 150, (RS)-4-(1H-indazol-5-ylamino)-N-(pyrimidin-5-yl)-5,6,7,8-tetrahydro[1]benzothieno[2,3-d]pyrimidine-7-carboxamide], the pIC50 was 7.51.
Regarding `O=C(NCc1ccsc1)C1CCc2c(sc3ncnc(Nc4ccc5[nH]ncc5c4)c23)C1` (racemic) [Example 151, (RS)-4-(1H-indazol-5-ylamino)-N-(thiophen-3-ylmethyl)-5,6,7,8-tetrahydro[1]benzothieno[2,3-d]pyrimidine-7-carboxamide], the pIC50 is 8.49.
For the molecule `Cn1cncc1CNC(=O)C1CCc2c(sc3ncnc(Nc4ccc5[nH]ncc5c4)c23)C1` (racemic) [Example 152, (RS)-4-(1H-indazol-5-ylamino)-N-[(1-methyl-1H-imidazol-5-yl)methyl]-5,6,7,8-tetrahydro[1]benzothieno[2,3-d]pyrimidine-7-carboxamide], the pIC50 is 7.77.
Regarding `COCCCN1CCN(C(=O)C2CCc3c(sc4ncnc(Nc5ccc6[nH]ncc6c5)c34)C2)CC1` (racemic) [Example 153, (RS)-[4-(1H-indazol-5-ylamino)-5,6,7,8-tetrahydro[1]benzothieno[2,3-d]pyrimidin-7-yl][4-(3-methoxypropyl)piperazin-1-yl]methanone], the pIC50 was 7.49.
With `O=C(C1CCc2c(sc3ncnc(Nc4ccc5[nH]ncc5c4)c23)C1)N1CCN(Cc2ccccn2)CC1` (racemic) [Example 154, (RS)-[4-(1H-indazol-5-ylamino)-5,6,7,8-tetrahydro[1]benzothieno[2,3-d]pyrimidin-7-yl][4-(pyridin-2-ylmethyl)piperazin-1-yl]methanone], the negative-log IC50 (pIC50) is 7.54.
Still for that read-out and setting: for `O=C(C1CCc2c(sc3ncnc(Nc4ccc5[nH]ncc5c4)c23)C1)N1CCN(Cc2cccnc2)CC1` (racemic) [Example 155, (RS)-[4-(1H-indazol-5-ylamino)-5,6,7,8-tetrahydro[1]benzothieno[2,3-d]pyrimidin-7-yl][4-(pyridin-3-ylmethyl)piperazin-1-yl]methanone] the value was 7.74.
For `CS(=O)(=O)N1CCN(C(=O)C2CCc3c(sc4ncnc(Nc5ccc6[nH]ncc6c5)c34)C2)CC1` (racemic) [Example 156, (RS)-[4-(1H-indazol-5-ylamino)-5,6,7,8-tetrahydro[1]benzothieno[2,3-d]pyrimidin-7-yl][4-(methylsulfonyl)piperazin-1-yl]methanone], the pIC50 was 7.74.
Same read-out and setting: for `CN(Cc1cnn(C)c1)C(=O)C1CCc2c(sc3ncnc(Nc4ccc5[nH]ncc5c4)c23)C1` (racemic) [Example 157, (RS)-4-(1H-indazol-5-ylamino)-N-methyl-N-[(1-methyl-1H-pyrazol-4-yl)methyl]-5,6,7,8-tetrahydro[1]benzothieno[2,3-d]pyrimidine-7-carboxamide] the value was 7.42; for `Cn1cc(CNC(=O)C2CCc3c(sc4ncnc(Nc5ccc6[nH]ncc6c5)c34)C2)cn1` (racemic) [Example 158, (RS)-4-(1H-indazol-5-ylamino)-N-[(1-methyl-1H-pyrazol-4-yl)methyl]-5,6,7,8-tetrahydro[1]benzothieno[2,3-d]pyrimidine-7-carboxamide], 7.78.
Same read-out and setting: for `O=C(C1CCc2c(sc3ncnc(Nc4ccc5[nH]ncc5c4)c23)C1)N1CC(O)C1` (racemic) [Example 159, (RS)-(3-hydroxyazetidin-1-yl)[4-(1H-indazol-5-ylamino)-5,6,7,8-tetrahydro[1]benzothieno[2,3-d]pyrimidin-7-yl]methanone] the value was 7.84.
On the same count and under the same terms, for `COC(=O)N1CCN(C(=O)C2CCc3c(sc4ncnc(Nc5ccc6[nH]ncc6c5)c34)C2)CC1` (racemic) [Example 160, (RS)-methyl4-{[4-(1H-indazol-5-ylamino)-5,6,7,8-tetrahydro[1]benzothieno[2,3-d]pyrimidin-7-yl]carbonyl}piperazine-1-carboxylate] the value was 7.51; for `CC(C)(NC(=O)C1CCc2c(sc3ncnc(Nc4ccc5[nH]ncc5c4)c23)C1)c1ccc(F)cc1` (racemic) [Example 161, (RS)-N-[2-(4-fluorophenyl)propan-2-yl]-4-(1H-indazol-5-ylamino)-5,6,7,8-tetrahydro[1]benzothieno[2,3-d]pyrimidine-7-carboxamide], 8.49; for `CN(Cc1ccsc1)C(=O)C1CCc2c(sc3ncnc(Nc4ccc5[nH]ncc5c4)c23)C1` (racemic) [Example 162, (RS)-4-(1H-indazol-5-ylamino)-N-methyl-N-(thiophen-3-ylmethyl)-5,6,7,8-tetrahydro[1]benzothieno[2,3-d]pyrimidine-7-carboxamide], 8.28.
On to `CN(Cc1cccn1C)C(=O)C1CCc2c(sc3ncnc(Nc4ccc5[nH]ncc5c4)c23)C1` (racemic) [Example 163, (RS)-4-(1H-indazol-5-ylamino)-N-methyl-N-[(1-methyl-1H-pyrrol-2-yl)methyl]-5,6,7,8-tetrahydro[1]benzothieno[2,3-d]pyrimidine-7-carboxamide], for which the negative-log IC50 (pIC50) is 7.91.
Regarding `CNC(=O)CN1CCN(C(=O)C2CCc3c(sc4ncnc(Nc5ccc6[nH]ncc6c5)c34)C2)CC1` (racemic) [Example 164, (RS)-2-(4-{[4-(1H-indazol-5-ylamino)-5,6,7,8-tetrahydro[1]benzothieno[2,3-d]pyrimidin-7-yl]carbonyl}piperazin-1-yl)-N-methylacetamide], the pIC50 was 7.65.
For `Cn1ccnc1CNC(=O)C1CCc2c(sc3ncnc(Nc4ccc5[nH]ncc5c4)c23)C1` (racemic) [Example 165, (RS)-4-(1H-indazol-5-ylamino)-N-[(1-methyl-1H-imidazol-2-yl)methyl]-5,6,7,8-tetrahydro[1]benzothieno[2,3-d]pyrimidine-7-carboxamide], the pIC50 was 7.77.
In the case of `O=C(CN1CCN(C(=O)C2CCc3c(sc4ncnc(Nc5ccc6[nH]ncc6c5)c34)C2)CC1)NC1CC1` (racemic) [Example 166, (RS)-N-cyclopropyl-2-(4-{[4-(1H-indazol-5-ylamino)-5,6,7,8-tetrahydro[1]benzothieno[2,3-d]pyrimidin-7-yl]carbonyl}piperazin-1-yl)acetamide], the pIC50 was 7.82.
The same measure, in the same setting: with `CN(CCN1CCCC1)C(=O)C1CCc2c(sc3ncnc(Nc4ccc5[nH]ncc5c4)c23)C1` (racemic) [Example 167, (RS)-4-(1H-indazol-5-ylamino)-N-methyl-N-[2-(pyrrolidin-1-yl)ethyl]-5,6,7,8-tetrahydro[1]benzothieno[2,3-d]pyrimidine-7-carboxamide] the figure was 7.83; with `CC(=O)N1CCN(CCNC(=O)C2CCc3c(sc4ncnc(Nc5ccc6[nH]ncc6c5)c34)C2)CC1` (racemic) [Example 168, (RS)-N-[2-(4-acetylpiperazin-1-yl)ethyl]-4-(1H-indazol-5-ylamino)-5,6,7,8-tetrahydro[1]benzothieno[2,3-d]pyrimidine-7-carboxamide], 7.76; with `CC1CCN(CCN(C)C(=O)C2CCc3c(sc4ncnc(Nc5ccc6[nH]ncc6c5)c34)C2)CC1` (racemic) [Example 169, (RS)-4-(1H-indazol-5-ylamino)-N-methyl-N-[2-(4-methylpiperidin-1-yl)ethyl]-5,6,7,8-tetrahydro[1]benzothieno[2,3-d]pyrimidine-7-carboxamide], 7.95.
Same read-out and setting: for `COc1cc2[nH]ncc2cc1Nc1ncnc2sc3c(c12)CCC(C(=O)N(C)CC(F)F)C3` (racemic) [Example 170, (RS)—N-(2,2-Difluoroethyl)-4-[(6-methoxy-1H-indazol-5-yl)amino]-N-methyl-5,6,7,8-tetrahydro[1]benzothieno[2,3-d]pyrimidine-7-carboxamide] the value was 9.10; for `CCN(CCO)C(=O)C1CCc2c(sc3ncnc(Nc4cc5cn[nH]c5cc4OC)c23)C1` (racemic) [Example 171, (RS)—N-Ethyl-N-(2-hydroxyethyl)-4-[(6-methoxy-1H-indazol-5-yl)amino]-5,6,7,8-tetrahydro[1]benzothieno[2,3-d]pyrimidine-7-carboxamide], 9.40.
The same measure, in the same setting: for `COc1cc2[nH]ncc2cc1Nc1ncnc2sc3c(c12)CCC(C(=O)N(C)CCO)C3` (racemic) [Example 172, (RS)—N-(2-Hydroxyethyl)-4-[(6-methoxy-1H-indazol-5-yl)amino]-N-methyl-5,6,7,8-tetrahydro[1]benzothieno[2,3-d]pyrimidine-7-carboxamide] the value was 9.40; for `COc1cc2[nH]ncc2cc1Nc1ncnc2sc3c(c12)CCC(C(=O)N(C)C(C)C)C3` (racemic) [Example 173, (RS)—N—Isopropyl-4-[(6-methoxy-1H-indazol-5-yl)amino]-N-methyl-5,6,7,8-tetrahydro[1]benzothieno[2,3-d]pyrimidine-7-carboxamide], 9.30; for `COc1cc2[nH]ncc2cc1Nc1ncnc2sc3c(c12)CCC(C(=O)N1CCOCC1)C3` (racemic) [Example 175, (RS)-{4-[(6-Methoxy-1H-indazol-5-yl)amino]-5,6,7,8-tetrahydro[1]benzothieno[2,3-d]pyrimidin-7-yl}(morpholin-4-yl)methanone], 9.30.
On to `COc1cc2[nH]ncc2cc1Nc1ncnc2sc3c(c12)CCC(C(=O)N1CCCCC1)C3` (racemic) [Example 176, (RS)-{4-[(6-Methoxy-1H-indazol-5-yl)amino]-5,6,7,8-tetrahydro[1]benzothieno[2,3-d]pyrimidin-7-yl}(piperidin-1-yl)methanone], for which the pIC50 was 9.30.
